{
  "source": "patent US10213415B2",
  "about": "“Compounds as opioid receptor modulators” (JANSSEN PHARMACEUTICA NV, priority 2004, dated 2019)",
  "key": {"male CD-1 mice [1]": {"system": "male CD-1 mice", "assay": "In Vivo Assay: Upper GI Tract Transit (MUGIT)", "settings": "Mus musculus, po, 1 h, p.o., read-out: upper GI transit (% ctrl)", "experimental": "Methods: The animals used in these studies were male CD-1 mice, ave. wt. ˜30 g. Mice were housed under 12 h/12 h light/dark cycle, food & water ad lib. On the day of the experiment mice were assigned to experimental groups, including one vehicle-only group (=control). At 30 min before administration of carmine dye, animals were dosed with vehicle or vehicle-plus-compound, mice were returned to their home cages after drug administration. After administration of carmine, the animals were either returned to their home cages (non-stressed) or individually placed in the same metal cages as used in the fecal output or entire GI tract transit to induce a novel environment stress. One hour after administration of carmine, mice were sacrificed by cervical dislocation, the abdomen opened midventrally, the small intestine from pylorus to cecum was removed, the mesentery divided in order to lay the intestine straight & flat—without stretching. The total length of intestine and the length of carmine-dyed intestine were measured in order to determine the percent of the upper GI tract over which transit had occurred as follows: {(Length of carmine-dyed intestine)/(Total length of intestine)}×100=% upper GI transit. The data expressed were group means±SD (or s.e.m.) and data expressed as % of control."}, "male CD-1 mice [2]": {"system": "male CD-1 mice", "assay": "In Vivo Assay: Stress-Induced Entire GI Tract Transit (MEGIT, MEGIT-NES, MEGIT-RS)", "set-up": "species or system mouse", "settings": "for MEGIT entire GI transit 6 hr % ctrl: acclimated mice; for MEGIT-RS entire GI transit 5 hr (% RS): dose 20 p.o., restraint stress", "experimental": "Methods: The animals used in these studies are male CD-1 mice, ave. wt. ˜30 g. Procedure: Mice were housed in LAM under 12 h/12 h light/dark cycle, food & water ad lib. On the day before the experiments, the mice assigned to the “acclimated” (non-stressed) control group were placed into individual wire mesh-bottomed cages, provided food and water ad lib. The acclimated control group was in this new environment for 16-18 hrs prior to beginning the test. On the day of the experiment, mice assigned to experimental groups were housed in home cages were transported to procedure room and remain in their home cages until the start of the transit portion of the study. […] After the carmine marker was administered each mouse was placed in the novel environment cage. One hour after administration of carmine, the fecal pellet output of each animal was recorded. At one-hour intervals thereafter the fecal pellets were examined for the presence of carmine-dye. The number of mice that excreted a carmine-containing fecal pellet at the end of each hour post carmine administration was recorded, until all mice had excreted carmine in a fecal pellet or the end of 6 hrs post carmine administration, whichever occurred first. A variant of this novel environment stress (NES) paradigm is to use the same procedures of dye and compound administrations, but to use restraint (confinement in a small plastic tube for 3 hr) as a stressor (RS=restraint stress), followed by two hours in an individual cage (total of 5 hr fecal transit time). […] The mouse entire GI tract (MEGIT) transit test can thus be done in mice that are all acclimated (non-stressed), in which case the data are expressed as % control (vehicle only), or in mice that are exposed to NES or RS, in which cases the data are expressed as % of the vehicle treated NES or RS group."}, "[3]": {"system": "novel environment-stressed mice", "assay": "In Vivo Assay-Stress-Induced Fecal Output (Fecal Output for 1 hr)", "set-up": "species or system mouse", "settings": "for response vs control in vivo at 30 mg/kg: Mus musculus, po, 1 h", "summary_of_the_method": "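Adult male Crl:CD-1(ICR) mice (˜30-35 g; at least 10 per dose group) were split into acclimated non-stressed controls, held individually for 16-18 hr in wire-mesh-bottom cages, and non-acclimated stressed groups. Mice were dosed intragastrically with vehicle or test compound in 0.5% methylcellulose, housed individually in novel cages over absorbent cardboard, and fecal pellets per mouse were counted hourly.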"}, "[4]": {"target": "T1, human delta subtype 2 opioid receptor (Homo sapiens, UniProt P41143)", "T1 construct": "purchased Perkin Elmer RBHODM400UA; host or cells: Chinese Hamster Ovary cells (recombinant expression)", "T1 sequence (P41143 whole entry)": "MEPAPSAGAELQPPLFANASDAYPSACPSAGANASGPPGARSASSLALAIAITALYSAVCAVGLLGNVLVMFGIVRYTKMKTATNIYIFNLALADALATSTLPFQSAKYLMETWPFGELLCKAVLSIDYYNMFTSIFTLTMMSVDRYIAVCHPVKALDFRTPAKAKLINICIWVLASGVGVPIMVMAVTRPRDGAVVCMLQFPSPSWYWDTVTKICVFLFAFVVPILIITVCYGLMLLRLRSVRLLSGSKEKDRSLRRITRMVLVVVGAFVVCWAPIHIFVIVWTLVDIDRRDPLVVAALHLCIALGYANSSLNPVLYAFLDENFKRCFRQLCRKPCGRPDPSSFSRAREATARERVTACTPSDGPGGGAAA", "assay": "Human Delta Opioid Receptor Binding Assay (CHO membranes, 3H-Naltrindole)", "settings": "read-out: hKi δ", "summary_of_the_method": "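Filtration binding on CHO-cell membranes expressing the human receptor, in 50 mM Tris pH 7.5 with 5 mM MgCl2, 30 min at room temperature; 3H-naltrindole diluted to 6 nM before mixing 1:1 with compound. Nonspecific binding defined with 1 μM unlabelled naltrindole; inhibition relative to no-inhibitor wells.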"}},
  "note": "Read-outs that look alike come from different tables or passages of the source.",
  "data": [
    {"smiles": "COc1ccc(CN(C(=O)[C@@H](N)Cc2c(C)cc(C(N)=O)cc2C)[C@@H](C)c2nc(-c3ccccc3)c[nH]2)cc1C(=O)O", "note": "[Cpd 18]", "values": [
      {"measurement": "response vs control in vivo at 5 mg", "setting": "male CD-1 mice [1]; dose 5 (mg)", "result": 94.2, "unit": "%"},
      {"measurement": "response vs control in vivo at 10 mg", "setting": "male CD-1 mice [1]; dose 10 (mg)", "result": 99.6, "unit": "%"},
      {"measurement": "response vs control in vivo at 25 mg", "setting": "male CD-1 mice [1]; dose 25 (mg)", "result": 83, "unit": "%"},
      {"measurement": "response vs control in vivo at 30 mg", "setting": "male CD-1 mice [1]", "result": 37.5, "unit": "%"},
      {"measurement": "response vs control in vivo at 50 mg", "setting": "male CD-1 mice [1]; dose 50 (mg)", "result": 69.9, "unit": "%"},
      {"measurement": "response vs control in vivo at 100 mg", "setting": "male CD-1 mice [1]", "result": 41.2, "unit": "%"},
      {"measurement": "MEGIT-NES Entire GI transit 6 hr (% NES)", "setting": "male CD-1 mice [2]; dose 30 p.o., novel environment stress", "result": 80, "unit": "% NES"},
      {"measurement": "Fecal Output (# pellets) cpd", "setting": "[3]; 30 mg/kg oral, novel environment-stressed mice, 1 hr", "result": 3.1, "unit": "pellets"},
      {"measurement": "response vs control in vivo at 30 mg/kg", "setting": "[3]; 30 mg/kg oral, relative to acclimated control, 1 hr, read-out: Fecal Output cpd % control", "result": 138, "unit": "%"},
      {"measurement": "response vs control in vivo at 30 mg/kg", "setting": "[3]; 30 mg/kg oral, relative to novel environment stress (NES) vehicle group, 1 hr, read-out: Fecal Output cpd % NES", "result": 82.7, "unit": "%"}
    ]},
    {"smiles": "COc1ccc(CN(C(=O)[C@@H](N)Cc2c(C)cc(C(N)=O)cc2C)[C@@H](C)c2nc(-c3ccccc3)c[nH]2)cc1OC", "note": "[Cpd 75]", "values": [
      {"measurement": "response vs control in vivo at 30 mg", "setting": "male CD-1 mice [1]", "result": 71.1, "unit": "%"},
      {"measurement": "response vs control in vivo at 60 mg", "setting": "male CD-1 mice [1]; dose 60 (mg)", "result": 56, "unit": "%"},
      {"measurement": "response vs control in vivo at 100 mg", "setting": "male CD-1 mice [1]", "result": 45.6, "unit": "%"},
      {"measurement": "MEGIT entire GI transit 6 hr % ctrl", "setting": "male CD-1 mice [2]; dose 30 p.o.", "result": 125, "unit": "% ctrl"},
      {"measurement": "MEGIT entire GI transit 6 hr % ctrl", "setting": "male CD-1 mice [2]; dose 60 p.o.", "result": 0, "unit": "% ctrl"},
      {"measurement": "MEGIT entire GI transit 6 hr % ctrl", "setting": "male CD-1 mice [2]; dose 100 p.o.", "result": 0, "unit": "% ctrl"},
      {"measurement": "Fecal pellet output, Compound (% control) 3.0", "setting": "[3]; dose 3.0, oral, NES mice, vs acclimated control", "result": 223.8, "unit": "% control"},
      {"measurement": "Fecal pellet output, Compound (% control) 10.0", "setting": "[3]; dose 10.0, oral, NES mice, vs acclimated control", "result": 188.1, "unit": "% control"},
      {"measurement": "Fecal pellet output, Compound (% control) 30.0", "setting": "[3]; dose 30.0, oral, NES mice, vs acclimated control", "result": 100, "unit": "% control"},
      {"measurement": "Ki", "setting": "[4]", "result": 8.5, "unit": "nM"}
    ]},
    {"smiles": "COc1ccc(CN(C(=O)[C@@H](N)Cc2ccc(O)cc2)[C@@H](C)c2nc(-c3ccccc3)c[nH]2)cc1C(=O)O", "note": "[Cpd 261]", "values": [
      {"measurement": "response vs control in vivo at 30 mg", "setting": "male CD-1 mice [1]", "result": 87.7, "unit": "%"},
      {"measurement": "MEGIT-RS entire GI transit 5 hr (% RS)", "setting": "male CD-1 mice [2]", "result": 103.6, "unit": "% RS"}
    ]},
    {"smiles": "COc1ccc(CN(C(=O)[C@@H](N)Cc2c(C)cc(C(N)=O)cc2C)[C@@H](C)c2nc(-c3ccc(I)cc3)c[nH]2)cc1C(=O)O", "note": "[Cpd 289]", "values": [
      {"measurement": "response vs control in vivo at 30 mg", "setting": "male CD-1 mice [1]", "result": 76.4, "unit": "%"},
      {"measurement": "MEGIT-RS entire GI transit 5 hr (% RS)", "setting": "male CD-1 mice [2]", "result": 14.1, "unit": "% RS"}
    ]}
  ]
}
